Data: patent publication US8217048B2, “Inhibitors of serine proteases, particularly HCV NS3-NS4A protease” (Vertex Pharmaceuticals Incorporated, priority 2003, dated 2012)

How the values were obtained:
HCV NS3-NS4A protease = target: T1, HCV NS3-NS4A protease (Hepatitis C virus genotype 1a, UniProt P27958); assay: HCV Ki Assay (enzyme, Example 5); type: biochemical; conditions: Ki values, tested according to Example 5 (enzyme); 5AB substrate, tNS3 with KK4A
T1 construct: The buffer, KK4A, DTT, and tNS3 were combined
T1 sequence (P27958 1658-1711): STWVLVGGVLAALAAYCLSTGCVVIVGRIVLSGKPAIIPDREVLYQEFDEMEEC
T1 sequence (P27958 1027-1208): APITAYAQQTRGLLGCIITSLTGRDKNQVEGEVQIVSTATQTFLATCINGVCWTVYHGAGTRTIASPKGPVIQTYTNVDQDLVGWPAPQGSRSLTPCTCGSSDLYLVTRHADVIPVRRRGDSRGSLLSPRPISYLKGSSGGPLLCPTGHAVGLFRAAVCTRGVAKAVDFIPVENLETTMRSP
Protocol: HPLC Microbore Method for Separation of 5AB Substrate and Products
NH2-Glu-Asp-Val-Val-(alpha)Abu-Cys-Ser-Met-Ser-Tyr-COOH
A stock solution of 20 mM 5AB (or concentration of your choice) was made in DMSO w/0.2M DTT. This was stored in aliquots at −20 C.
Buffer: 50 mM HEPES, pH 7.8; 20% glycerol; 100 mM NaCl
Total assay volume was 100 μL
The buffer, KK4A, DTT, and tNS3 were combined; distributed 78 μL each into wells of 96 well plate. This was incubated at 30 C for ˜5-10 min.
2.5 μL of appropriate concentration of test compound was dissolved in DMSO (DMSO only for control) and added to each well. This was incubated at room temperature for 15 min.
Initiated reaction by addition of 20 μL of 250 μM 5AB substrate (25 μM concentration is equivalent or slightly lower than the Km for 5AB).
Incubated for 20 min at 30 C.
Terminated reaction by addition of 25 μL of 10% TFA
Transferred 120 μL aliquots to HPLC vials
Separated SMSY product from substrate and KK4A by the following method:
Microbore Separation Method:
Instrumentation: Agilent 1100
Column thermostated chamber G1316A
Diode array detector G1315A
Solvent A=HPLC grade water+0.1% TFA
Solvent B=HPLC grade acetonitrile+0.1% TFA
Stop time: 17 min Post-run time: 10 min.

[1] = tested on: Cells containing hepatitis C virus (HCV) replicon; assay: HCV Replicon Cell Assay (Example 4); type: cell-based; conditions: 48 h, tested according to Example 4 (cell), 50% inhibition of HCV RNA level, 48-hour incubation
Protocol: HCV Replicon Cell Assay Protocol
Cells containing hepatitis C virus (HCV) replicon were maintained in DMEM containing 10% fetal bovine serum (FBS), 0.25 mg per ml of G418, with appropriate supplements (media A).
On day 1, replicon cell monolayer was treated with a trypsin:EDTA mixture, removed, and then media A was diluted into a final concentration of 100,000 cells per ml wit. 10,000 cells in 100 ul were plated into each well of a 96-well tissue culture plate, and cultured overnight in a tissue culture incubator at 37° C.
On day 2, compounds (in 100% DMSO) were serially diluted into DMEM containing 2% FBS, 0.5% DMSO, with appropriate supplements (media B). The final concentration of DMSO was maintained at 0.5% throughout the dilution series.
Media on the replicon cell monolayer was removed, and then media B containing various concentrations of compounds was added. Media B without any compound was added to other wells as no compound controls.
Cells were incubated with compound or 0.5% DMSO in media B for 48 hours in a tissue culture incubator at 37° C. At the end of the 48-hour incubation, the media was removed, and the replicon cell monolayer was washed once with PBS and stored at −80° C. prior to RNA extraction.
Culture plates with treated replicon cell monolayers were thawed, and a fixed amount of another RNA virus, such as Bovine Viral Diarrhea Virus (BVDV) was added to cells in each well, RNA extraction reagents (such as reagents from RNeasy kits) were added to the cells immediately to avoid degradation of RNA. Total RNA was extracted according the instruction of manufacturer with modification to improve extraction efficiency and consistency. Finally, total cellular RNA, including HCV replicon RNA, was eluted and stored at −80° C. until further processing.
A Taqman real-time RT-PCR quantification assay was set up with two sets of specific primers and probe. One was for HCV and the other was for BVDV. Total RNA extractants from treated HCV replicon cells was added to the PCR reactions for quantification of both HCV and BVDV RNA in the same PCR well. Experimental failure was flagged and rejected based on the level of BVDV RNA in each well. The level of HCV RNA in each well was calculated according to a standard curve run in the same PCR plate. The percentage of inhibition or decrease of HCV RNA level due to compound treatment was calculated using the DMSO or no compound control as 0% of inhibition. The IC50 (concentration at which 50% inhibition of HCV RNA level is observed) was calculated from the titration curve of any given compound.

Q: Which Ki (HCV NS3-NS4A protease) does the source give for `CCC[C@H](NC(=O)[C@@H]1C[C@@H](Oc2ccncn2)CN1C(=O)[C@@H](NC(=O)[C@@H](NC(=O)c1cnccn1)C1CCCCC1)C(C)(C)C)C(=O)C(=O)NC1CC1` [Compound 50] here?
A: 100 to 300 nM

Q: And the IC50 [1]?
A: < 500 nM

Q: Which results are given for `CCC[C@H](NC(=O)[C@@H]1C[C@@H](Oc2ccc(F)c(F)c2)CN1C(=O)[C@@H](NC(=O)[C@@H](NC(=O)c1cnccn1)C1CCCCC1)C(C)(C)C)C(=O)C(=O)NC1CC1` [Compound 54]?
A: Ki (HCV NS3-NS4A protease): < 100 nM; IC50 [1]: < 500 nM

Q: How did the Ki (HCV NS3-NS4A protease) turn out when `CCC[C@H](NC(=O)[C@@H]1C[C@@H](Oc2cccc(-c3ccccc3)c2)CN1C(=O)[C@@H](NC(=O)[C@@H](NC(=O)c1cnccn1)C1CCCCC1)C(C)(C)C)C(=O)C(=O)NC1CC1` [Compound 15] was run?
A: < 100 nM

Q: What about the IC50 [1] of the same molecule?
A: < 500 nM

Q: How did the Ki (HCV NS3-NS4A protease) turn out when `CCC[C@H](NC(=O)C1C[C@@H](Oc2cc(C(F)(F)F)cc(C(F)(F)F)c2)CN1C(=O)[C@@H](NC(=O)[C@@H](NC(=O)c1cnccn1)C1CCCCC1)C(C)(C)C)C(=O)C(=O)NC1CC1` (some centres unmarked) [Compound 11] was run?
A: > 300 nM

Q: What about the IC50 [1] of the same molecule?
A: > 1000 nM

Q: What does the source list for `CCC[C@H](NC(=O)[C@@H]1C[C@@H](Oc2ccccc2)CN1C(=O)[C@@H](NC(=O)[C@@H](NC(=O)c1cnccn1)C1CCCCC1)C(C)(C)C)C(=O)C(=O)NC1CC1` [Compound 35]?
A: Ki (HCV NS3-NS4A protease): < 100 nM; IC50 [1]: < 500 nM

Q: With `CCC[C@H](NC(=O)[C@@H]1C[C@@H](Oc2ccc(Cl)cn2)CN1C(=O)[C@@H](NC(=O)[C@@H](NC(=O)c1cnccn1)C1CCCCC1)C(C)(C)C)C(=O)C(=O)NC1CC1` [Compound 59, Pyrazine-2-carboxylic acid ({1-[4-(5-chloro-pyridin-2-yloxy)-2-(1-cyclopropylaminooxalyl-butylcarbamoyl)-pyrrolidine-1-carbonyl]-2,2-dimethyl-propylcarbamoyl}-cyclohexyl-methyl)-amide] as the molecule, how does the Ki (HCV NS3-NS4A protease) read?
A: < 100 nM

Q: What about the IC50 [1] of the same molecule?
A: < 500 nM

Q: How did the Ki (HCV NS3-NS4A protease) turn out when `CCC[C@H](NC(=O)[C@@H]1C[C@@H](Oc2ccc(Cl)cc2)CN1C(=O)[C@@H](NC(=O)[C@@H](NC(=O)c1cnccn1)C1CCCCC1)C(C)(C)C)C(=O)C(=O)NC1CC1` [Compound 56] was run?
A: < 100 nM

Q: And the IC50 [1]?
A: < 500 nM

Q: For `CCC[C@H](NC(=O)C1C[C@@H](Oc2cc(F)ccc2F)CN1C(=O)[C@@H](NC(=O)[C@@H](NC(=O)c1cnccn1)C1CCCCC1)C(C)(C)C)C(=O)C(=O)NC1CC1` (some centres unmarked) [Compound 8], which Ki (HCV NS3-NS4A protease) is on record?
A: 100 to 300 nM

Q: What about the IC50 [1] of the same molecule?
A: 500 to 1000 nM

Q: How did the Ki (HCV NS3-NS4A protease) turn out when `CCC[C@H](NC(=O)[C@@H]1C[C@@H](Oc2ccnc3cc(C(F)(F)F)ccc23)CN1C(=O)[C@@H](NC(=O)[C@@H](NC(=O)c1cnccn1)C1CCCCC1)C(C)(C)C)C(=O)C(=O)NC1CC1` [Compound 67] was run?
A: < 100 nM

Q: What about the IC50 [1] of the same molecule?
A: < 500 nM

Q: Which Ki (HCV NS3-NS4A protease) does the source give for `CCCC(NC(=O)[C@@H]1C[C@@H](Oc2ccccc2)CN1C(=O)[C@@H](NC(=O)[C@@H](NC(=O)c1cnccn1)C1CCCCC1)C(C)(C)C)C(=O)C(=O)NC1CC1` (some centres unmarked) [Compound 34] here?
A: 100 to 300 nM

Q: And the IC50 [1]?
A: < 500 nM
